How the values were obtained:
Hepatotoxicity [1] = tested on: Hepatotoxicity;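 on HepSE cirrhosis: cirrhosis hepatic side effect score taken from the DILIps (drug-induced liver injury prediction) training set; call rule not given here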; on HepSE hepatic failure: call rule not given here;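 on HepSE hepatic necrosis: score of hepatic side effects for hepatic necrosis, drawn from the training data of DILIps, a prediction system for drug-induced liver injury; call rule not given here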;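 on HepSE hepatomegaly: hepatic side effect score for hepatomegaly, taken from the training set of the DILIps drug-induced liver injury prediction system; call rule not given here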;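 on HepSE jaundice: Jaundice-related hepatic side-effect score drawn from the training data of the DILIps (drug-induced liver injury prediction system); call rule not given here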; on HepSE liver disease: call rule not given here;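 on HepSE liver fatty: hepatic side effect score for fatty liver, taken from the DILIps training set for predicting drug-induced liver injury; call rule not given here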
Hepatotoxicity [2] = tested on: Hepatotoxicity; remark: listed apart in the source;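 on HepSE cirrhosis: cirrhosis hepatic side effect score taken from the DILIps (drug-induced liver injury prediction) training set; call rule not given here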; on HepSE hepatic failure: call rule not given here;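 on HepSE hepatic necrosis: score of hepatic side effects for hepatic necrosis, drawn from the training data of DILIps, a prediction system for drug-induced liver injury; call rule not given here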;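 on HepSE hepatomegaly: hepatic side effect score for hepatomegaly, taken from the training set of the DILIps drug-induced liver injury prediction system; call rule not given here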;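 on HepSE jaundice: Jaundice-related hepatic side-effect score drawn from the training data of the DILIps (drug-induced liver injury prediction system); call rule not given here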; on HepSE liver disease: call rule not given here;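 on HepSE liver fatty: hepatic side effect score for fatty liver, taken from the DILIps training set for predicting drug-induced liver injury; call rule not given here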
Hepatotoxicity [3] = tested on: Hepatotoxicity; remark: listed apart in the source;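 on HepSE cirrhosis: cirrhosis hepatic side effect score taken from the DILIps (drug-induced liver injury prediction) training set; call rule not given here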; on HepSE hepatic failure: call rule not given here;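 on HepSE hepatic necrosis: score of hepatic side effects for hepatic necrosis, drawn from the training data of DILIps, a prediction system for drug-induced liver injury; call rule not given here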;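 on HepSE hepatomegaly: hepatic side effect score for hepatomegaly, taken from the training set of the DILIps drug-induced liver injury prediction system; call rule not given here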;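 on HepSE jaundice: Jaundice-related hepatic side-effect score drawn from the training data of the DILIps (drug-induced liver injury prediction system); call rule not given here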; on HepSE liver disease: call rule not given here;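 on HepSE liver fatty: hepatic side effect score for fatty liver, taken from the DILIps training set for predicting drug-induced liver injury; call rule not given here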
Hepatotoxicity [4] = tested on: Hepatotoxicity; remark: listed apart in the source;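 on HepSE cirrhosis: cirrhosis hepatic side effect score taken from the DILIps (drug-induced liver injury prediction) training set; call rule not given here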; on HepSE hepatic failure: call rule not given here;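 on HepSE hepatic necrosis: score of hepatic side effects for hepatic necrosis, drawn from the training data of DILIps, a prediction system for drug-induced liver injury; call rule not given here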;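 on HepSE hepatomegaly: hepatic side effect score for hepatomegaly, taken from the training set of the DILIps drug-induced liver injury prediction system; call rule not given here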;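 on HepSE jaundice: Jaundice-related hepatic side-effect score drawn from the training data of the DILIps (drug-induced liver injury prediction system); call rule not given here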; on HepSE liver disease: call rule not given here;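 on HepSE liver fatty: hepatic side effect score for fatty liver, taken from the DILIps training set for predicting drug-induced liver injury; call rule not given here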
Hepatotoxicity [5] = tested on: Hepatotoxicity; remark: listed apart in the source; on HepSE hepatic failure: call rule not given here; on HepSE liver disease: call rule not given here
Hepatotoxicity [6] = tested on: Hepatotoxicity; remark: listed apart in the source; on HepSE hepatic failure: call rule not given here; on HepSE liver disease: call rule not given here
Hepatotoxicity [7] = tested on: Hepatotoxicity; remark: listed apart in the source
Hepatotoxicity [8] = tested on: Hepatotoxicity; remark: listed apart in the source
Hepatotoxicity [9] = tested on: Hepatotoxicity; remark: listed apart in the source
Hepatotoxicity [10] = tested on: Hepatotoxicity; remark: listed apart in the source
Hepatotoxicity [11] = tested on: Hepatotoxicity; remark: listed apart in the source
Hepatotoxicity [12] = tested on: Hepatotoxicity; remark: listed apart in the source
Hepatotoxicity [13] = tested on: Hepatotoxicity; remark: listed apart in the source
Hepatotoxicity [14] = tested on: Hepatotoxicity; remark: listed apart in the source

SMILES | HepSE_hepatic necrosis (Hepatotoxicity [1]) | HepSE_hepatitis (Hepatotoxicity [2]) | HepSE_liver disease (Hepatotoxicity [3]) | HepSE_hepatic failure (Hepatotoxicity [4]) | HepSE_bilirubinemia (Hepatotoxicity [5]) | HepSE_hepatomegaly (Hepatotoxicity [6]) | HepSE_liver fatty (Hepatotoxicity [7]) | HepSE_cirrhosis (Hepatotoxicity [8]) | HepSE_jaundice (Hepatotoxicity [9]) | HepSE_cholelithiasis (Hepatotoxicity [10]) | HepSE_cholecystitis (Hepatotoxicity [11]) | HepSE_liver function tests abnormal (Hepatotoxicity [12]) | HepSE_elevated liver function tests (Hepatotoxicity [13]) | HepSE_Combined Scores (Hepatotoxicity [14]) | also measured
CC(C)CC(N(C)C)C1(c2ccc(Cl)cc2)CCC1 (stereo unspecified) [SIBUTRAMINE] | 0 | 0 | 0 | 0 | 0 | 0 | 0 | 0 | 0 | 1 | 1 | 1 | 0 | 3 | –
CSCC[C@H](NC(=O)[C@H](Cc1ccc(OS(=O)(=O)O)cc1)NC(=O)[C@@H](N)CC(=O)O)C(=O)NCC(=O)N[C@@H](Cc1c[nH]c2ccccc12)C(=O)N[C@@H](CCSC)C(=O)N[C@@H](CC(=O)O)C(=O)N[C@@H](Cc1ccccc1)C(N)=O [SINCALIDE] | 0 | 0 | 0 | 0 | 0 | 0 | 0 | 0 | 0 | 0 | 0 | 0 | 0 | 0 | –
CO[C@H]1C[C@@H]2CC[C@@H](C)[C@@](O)(O2)C(=O)C(=O)N2CCCC[C@H]2C(=O)O[C@H]([C@H](C)C[C@@H]2CC[C@@H](O)[C@H](OC)C2)CC(=O)[C@H](C)/C=C(\C)[C@@H](O)[C@@H](OC)C(=O)[C@H](C)C[C@H](C)/C=C/C=C/C=C/1C [SIROLIMUS] | 1 | 0 | 0 | 0 | 1 | 0 | 0 | 0 | 0 | 0 | 0 | 1 | 0 | 3 | –
CC(=O)[O-].[Na+] [SODIUM ACETATE] | – | – | – | – | – | – | – | – | – | – | – | – | – | – | HepSE_hepatic necrosis (Hepatotoxicity [1]; Liver): 0; HepSE_hepatitis (Hepatotoxicity [2]; Liver): 0; HepSE_liver disease (Hepatotoxicity [3]; Liver): 0; HepSE_hepatic failure (Hepatotoxicity [4]; Liver): 0; HepSE_bilirubinemia (Hepatotoxicity [5]; Liver): 0; HepSE_hepatomegaly (Hepatotoxicity [6]; Liver): 0; HepSE_liver fatty (Hepatotoxicity [7]; Liver): 0; HepSE_cirrhosis (Hepatotoxicity [8]; Liver): 0; HepSE_jaundice (Hepatotoxicity [9]; Liver): 0; HepSE_cholelithiasis (Hepatotoxicity [10]; Liver): 0; HepSE_cholecystitis (Hepatotoxicity [11]; Liver): 0; HepSE_liver function tests abnormal (Hepatotoxicity [12]; Liver): 0; HepSE_elevated liver function tests (Hepatotoxicity [13]; Liver): 0; HepSE_Combined Scores (Hepatotoxicity [14]; Liver): 0
O=C([O-])O.[Na+] [SODIUM BICARBONATE] | – | – | – | – | – | – | – | – | – | – | – | – | – | – | HepSE_hepatic necrosis (Hepatotoxicity [1]; Liver): 0; HepSE_hepatitis (Hepatotoxicity [2]; Liver): 0; HepSE_liver disease (Hepatotoxicity [3]; Liver): 0; HepSE_hepatic failure (Hepatotoxicity [4]; Liver): 0; HepSE_bilirubinemia (Hepatotoxicity [5]; Liver): 0; HepSE_hepatomegaly (Hepatotoxicity [6]; Liver): 0; HepSE_liver fatty (Hepatotoxicity [7]; Liver): 0; HepSE_cirrhosis (Hepatotoxicity [8]; Liver): 0; HepSE_jaundice (Hepatotoxicity [9]; Liver): 0; HepSE_cholelithiasis (Hepatotoxicity [10]; Liver): 0; HepSE_cholecystitis (Hepatotoxicity [11]; Liver): 0; HepSE_liver function tests abnormal (Hepatotoxicity [12]; Liver): 0; HepSE_elevated liver function tests (Hepatotoxicity [13]; Liver): 0; HepSE_Combined Scores (Hepatotoxicity [14]; Liver): 0
[Cl-].[Na+] [SODIUM CHLORIDE] | 0 | 0 | 0 | 0 | 0 | 0 | 0 | 0 | 0 | 0 | 0 | 0 | 0 | 0 | –
O=C(O)CCC(=O)O.O=C(O[C@H]1CN2CCC1CC2)N1CCc2ccccc2[C@@H]1c1ccccc1 [SOLIFENACIN SUCCINATE] | 0 | 0 | 0 | 0 | 0 | 0 | 0 | 0 | 0 | 0 | 0 | 1 | 0 | 1 | –
CNC(=O)c1cc(Oc2ccc(NC(=O)Nc3ccc(Cl)c(C(F)(F)F)c3)cc2)ccn1 [SORAFENIB] | 0 | 0 | 0 | 0 | 0 | 0 | 0 | 0 | 1 | 0 | 1 | 0 | 0 | 2 | –
CC(C)NCC(O)c1ccc(NS(C)(=O)=O)cc1 (stereo unspecified) [SOTALOL] | 0 | 0 | 0 | 0 | 0 | 0 | 0 | 0 | 0 | 0 | 0 | 0 | 0 | 0 | –
